From patent publication US10294202B2, “Pyrrolidinones as herbicides” (FMC Corporation, priority 2013, dated 2019)

Key:
[1] = test system: barnyardgrass; assay: Test A pre-/postemergence herbicide test; type: in vivo, Echinochloa crus-galli
Summary of the method: (§1)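 Directed soil spray to seeded pots (preemergence) or spray onto one- to two-leaf seedlings 2–10 cm tall (postemergence); loam/sand substrate throughout. Evaluated visually after about 10 days against untreated plants, 0 = no effect, 100 = complete control.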

[2] = test system: kochia; assay: Test A pre-/postemergence herbicide test; type: in vivo, Kochia scoparia; details: for Plant response rating, Kochia: 0 to 100 scale
Summary of the method: as §1

[3] = test system: ragweed; assay: Test A pre-/postemergence herbicide test; type: in vivo, Ambrosia elatior; details: for Plant response rating, Ragweed: 0 to 100 scale
Summary of the method: as §1

[4] = test system: ryegrass, Italian; assay: Test A pre-/postemergence herbicide test; type: in vivo, Lolium multiflorum; details: for Plant response rating, Ryegrass, Italian: 0 to 100 scale
Summary of the method: as §1

[5] = test system: giant foxtail; assay: Test A pre-/postemergence herbicide test; type: in vivo, Setaria faberii; details: for Plant response rating, Foxtail, Giant: 0 to 100 scale
Summary of the method: as §1

[6] = test system: pigweed; assay: Test A pre-/postemergence herbicide test; type: in vivo, Amaranthus retroflexus; details: for Plant response rating, Pigweed: 0 to 100 scale
Summary of the method: as §1

[7] = test system: wheat; assay: Test A pre-/postemergence herbicide test; type: in vivo, Triticum aestivum; details: Postemergence; for Plant response rating, Wheat: 125 g ai/ha, 0 to 100 scale, 0 no effect, 100 complete control; for Wheat plant response rating (0 to 100 scale, 0 is no effect, 100 is complete control): 500 g ai/ha
Summary of the method: as §1

[8] = test system: corn; assay: Test A pre-/postemergence herbicide test; type: in vivo, Zea mays; details: Postemergence
Summary of the method: as §1

[9] = test system: blackgrass; assay: Test A postemergence herbicide test; type: in vivo, Alopecurus myosuroides
Summary of the method: (§2)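 Injury was rated visually about 10 days after treatment on a 0 (no effect) to 100 (complete control) scale, compared with untreated plants. Test chemicals were sprayed postemergence onto greenhouse plants 2–10 cm high at one to two leaves, grown in a loam–sand blend.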

[10] = test system: galium; assay: Test A postemergence herbicide test; type: in vivo, Galium aparine; details: for Plant response rating, Galium: 125 g ai/ha, 0 to 100 scale, 0 no effect, 100 complete control; for Galium plant response rating (0 to 100 scale, 0 is no effect, 100 is complete control): 500 g ai/ha
Summary of the method: as §2

[11] = test system: rice; assay: Test C flooded paddy test; type: in vivo, Oryza sativa; details: Flood
Summary of the method: (§3)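 Plants grown to the 2-leaf stage; pots flooded to 3 cm above soil and compound applied directly into the paddy water, depth kept throughout. Greenhouse 13 to 15 days, then visual rating vs untreated controls on 0–100 scale (0 no effect, 100 complete control); dash means no result.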

[12] = test system: sedge, umbrella; assay: Test C flooded paddy test; type: in vivo, Cyperus difformis; details: Flood
Summary of the method: as §3

[13] = test system: ducksalad; assay: Test C flooded paddy test; type: in vivo, Heteranthera limosa; details: Flood
Summary of the method: as §3

[14] = test system: barnyardgrass; assay: Test C flooded paddy test; type: in vivo, Echinochloa crus-galli; details: Flood
Summary of the method: as §3

[15] = 125 g ai/ha, visual rating, 0 to 100 scale, 0 no effect, 100 complete control, approximately 10 days, preemergence
[16] = Postemergence, 125 g ai/ha, 0 to 100 scale, 0 no effect, 100 complete control
[17] = Postemergence, 500 g ai/ha, 0 to 100 scale (0 no effect, 100 complete control)
[18] = preemergence, 500 g ai/ha, 0 to 100 scale (0 no effect, 100 complete control)
[19] = 125 g ai/ha, visual rating, 0 no effect, 100 complete control, approximately 10 days, preemergence
[20] = Postemergence, 125 g ai/ha, 0 no effect, 100 complete control
[21] = 125 g ai/ha, 0 to 100 scale, 0 no effect, 100 complete control
[22] = 500 g ai/ha, 0 to 100 scale (0 no effect, 100 complete control)
[23] = 125 g ai/ha, scale of 0 to 100 where 0 is no effect and 100 is complete control, 13 to 15 days

Question: With O=C1NCC(c2cccc(C(F)(F)F)c2)C1C(=O)Nc1ncc(Cl)s1 (racemic) [Compound 113] as the molecule, how does the “Plant response rating, Barnyardgrass” value [1, 15] read?
Answer: Its value is 0.

Question: What about the “Plant response rating, Barnyardgrass” value [1, 16] of the same molecule?
Answer: Its value is 0.

Question: What about the “Plant response rating, Barnyardgrass” value [1, 17] of the same molecule?
Answer: The value was 0.

Question: And the “Plant response rating, Barnyardgrass” value [1, 18]?
Answer: The value was 0.

Question: What about the “Plant response rating, Kochia” value [2, 19] of the same molecule?
Answer: The value was 0.

Question: And the “Plant response rating, Kochia” value [2, 20]?
Answer: The value was 0.

Question: And the “Kochia plant response rating (0 to 100 scale, 0 is no effect, 100 is complete control)” value ([2]; Postemergence, 500 g ai/ha)?
Answer: Its value is 0.

Question: What about the “Plant response rating, Kochia” value ([2]; preemergence, 500 g ai/ha) of the same molecule?
Answer: The value was 0.

Question: And the “Plant response rating, Ragweed” value [3, 19]?
Answer: The value was 0.

Question: And the “Plant response rating, Ragweed” value [3, 20]?
Answer: Its value is 0.

Question: What about the “Ragweed plant response rating (0 to 100 scale, 0 is no effect, 100 is complete control)” value ([3]; Postemergence, 500 g ai/ha) of the same molecule?
Answer: The value was 0.

Question: And the “Plant response rating, Ragweed” value ([3]; preemergence, 500 g ai/ha)?
Answer: The value was 0.

Question: What about the “Plant response rating, Ryegrass, Italian” value [4, 19] of the same molecule?
Answer: Its value is 0.

Question: And the “Plant response rating, Ryegrass, Italian” value [4, 20]?
Answer: Its value is 0.

Question: What about the “Ryegrass, Italian plant response rating (0 to 100 scale, 0 is no effect, 100 is complete control)” value ([4]; Postemergence, 500 g ai/ha) of the same molecule?
Answer: Its value is 0.

Question: And the “Plant response rating, Ryegrass, Italian” value ([4]; preemergence, 500 g ai/ha)?
Answer: Its value is 0.

Question: And the “Plant response rating, Foxtail, Giant” value [5, 19]?
Answer: The value was 0.

Question: And the “Plant response rating, Foxtail, Giant” value [5, 20]?
Answer: Its value is 0.

Question: And the “Foxtail, Giant plant response rating (0 to 100 scale, 0 is no effect, 100 is complete control)” value ([5]; Postemergence, 500 g ai/ha)?
Answer: Its value is 0.

Question: What about the “Plant response rating, Foxtail, Giant” value ([5]; preemergence, 500 g ai/ha) of the same molecule?
Answer: Its value is 0.

Question: What about the “Plant response rating, Pigweed” value [6, 19] of the same molecule?
Answer: Its value is 0.

Question: What about the “Plant response rating, Pigweed” value [6, 20] of the same molecule?
Answer: Its value is 0.

Question: And the “Pigweed plant response rating (0 to 100 scale, 0 is no effect, 100 is complete control)” value ([6]; Postemergence, 500 g ai/ha)?
Answer: Its value is 0.

Question: What about the “Plant response rating, Pigweed” value ([6]; preemergence, 500 g ai/ha) of the same molecule?
Answer: The value was 0.

Question: And the “Plant response rating, Wheat” value [7]?
Answer: Its value is 0.

Question: What about the “Wheat plant response rating (0 to 100 scale, 0 is no effect, 100 is complete control)” value [7] of the same molecule?
Answer: Its value is 0.

Question: What about the “Plant response rating, Corn” value [8, 21] of the same molecule?
Answer: The value was 0.

Question: What about the “Plant response rating, Corn” value [8, 22] of the same molecule?
Answer: Its value is 0.

Question: What about the “Plant response rating, Blackgrass” value [9, 21] of the same molecule?
Answer: The value was 0.

Question: And the “Plant response rating, Blackgrass” value [9, 22]?
Answer: The value was 0.

Question: What about the “Plant response rating, Galium” value [10] of the same molecule?
Answer: The value was 0.

Question: What about the “Galium plant response rating (0 to 100 scale, 0 is no effect, 100 is complete control)” value [10] of the same molecule?
Answer: The value was 0.

Question: And the “Plant response rating, Rice” value [11, 23]?
Answer: The value was 0.

Question: What about the “Plant response rating, Rice” value ([11]; 250 g ai/ha, scale 0 to 100) of the same molecule?
Answer: The value was 0.

Question: What about the “Plant response rating, Rice” value ([11]; 500 g ai/ha, scale 0 to 100) of the same molecule?
Answer: The value was 0.

Question: And the “Plant response rating, Rice” value ([11]; 1000 g ai/ha, scale 0 to 100)?
Answer: Its value is 0.

Question: And the “Plant response rating, Sedge, Umbrella” value [12, 23]?
Answer: The value was 0.

Question: And the “Plant response rating, Sedge, Umbrella” value ([12]; 250 g ai/ha, scale 0 to 100)?
Answer: The value was 0.

Question: What about the “Plant response rating, Sedge, Umbrella” value ([12]; 500 g ai/ha, scale 0 to 100) of the same molecule?
Answer: Its value is 0.

Question: And the “Plant response rating, Sedge, Umbrella” value ([12]; 1000 g ai/ha, scale 0 to 100)?
Answer: Its value is 0.

Question: What about the “Plant response rating, Ducksalad” value [13, 23] of the same molecule?
Answer: The value was 20.

Question: And the “Plant response rating, Ducksalad” value ([13]; 250 g ai/ha, scale 0 to 100)?
Answer: Its value is 30.

Question: And the “Plant response rating, Ducksalad” value ([13]; 500 g ai/ha, scale 0 to 100)?
Answer: Its value is 50.

Question: And the “Plant response rating, Ducksalad” value ([13]; 1000 g ai/ha, scale 0 to 100)?
Answer: Its value is 70.

Question: What about the “Plant response rating, Barnyardgrass” value [14, 23] of the same molecule?
Answer: The value was 0.

Question: What about the “Plant response rating, Barnyardgrass” value ([14]; 250 g ai/ha, scale 0 to 100) of the same molecule?
Answer: Its value is 0.

Question: What about the “Plant response rating, Barnyardgrass” value ([14]; 500 g ai/ha, scale 0 to 100) of the same molecule?
Answer: The value was 0.

Question: And the “Plant response rating, Barnyardgrass” value ([14]; 1000 g ai/ha, scale 0 to 100)?
Answer: Its value is 0.

Question: Which results are given for O=C1NCC(c2cccc(C(F)(F)F)c2)C1C(=O)Nc1nc(C(F)(F)F)co1 (racemic) [Compound 114]?
Answer: Plant response rating, Barnyardgrass [1, 15]: 20; Plant response rating, Barnyardgrass [1, 16]: 20; Plant response rating, Barnyardgrass [1, 17]: 60; Plant response rating, Barnyardgrass [1, 18]: 50; Plant response rating, Kochia [2, 19]: 0; Plant response rating, Kochia [2, 20]: 0; Kochia plant response rating (0 to 100 scale, 0 is no effect, 100 is complete control) ([2]; Postemergence, 500 g ai/ha): 20; Plant response rating, Kochia ([2]; preemergence, 500 g ai/ha): 0; Plant response rating, Ragweed [3, 19]: 0; Plant response rating, Ragweed [3, 20]: 0; Ragweed plant response rating (0 to 100 scale, 0 is no effect, 100 is complete control) ([3]; Postemergence, 500 g ai/ha): 0; Plant response rating, Ragweed ([3]; preemergence, 500 g ai/ha): 0; Plant response rating, Ryegrass, Italian [4, 19]: 0; Plant response rating, Ryegrass, Italian [4, 20]: 0; Ryegrass, Italian plant response rating (0 to 100 scale, 0 is no effect, 100 is complete control) ([4]; Postemergence, 500 g ai/ha): 60; Plant response rating, Ryegrass, Italian ([4]; preemergence, 500 g ai/ha): 30; Plant response rating, Foxtail, Giant [5, 19]: 20; Plant response rating, Foxtail, Giant [5, 20]: 40; Foxtail, Giant plant response rating (0 to 100 scale, 0 is no effect, 100 is complete control) ([5]; Postemergence, 500 g ai/ha): 70; Plant response rating, Foxtail, Giant ([5]; preemergence, 500 g ai/ha): 70; Plant response rating, Pigweed [6, 19]: 0; Plant response rating, Pigweed [6, 20]: 0; Pigweed plant response rating (0 to 100 scale, 0 is no effect, 100 is complete control) ([6]; Postemergence, 500 g ai/ha): 0; Plant response rating, Pigweed ([6]; preemergence, 500 g ai/ha): 0; Plant response rating, Wheat [7]: 0; Wheat plant response rating (0 to 100 scale, 0 is no effect, 100 is complete control) [7]: 20; Plant response rating, Corn [8, 21]: 0; Plant response rating, Corn [8, 22]: 20; Plant response rating, Blackgrass [9, 21]: 20; Plant response rating, Blackgrass [9, 22]: 30; Plant response rating, Galium [10]: 0; Galium plant response rating (0 to 100 scale, 0 is no effect, 100 is complete control) [10]: 20; Plant response rating, Rice [11, 23]: 0; Plant response rating, Rice ([11]; 250 g ai/ha, scale 0 to 100): 0; Plant response rating, Rice ([11]; 500 g ai/ha, scale 0 to 100): 0; Plant response rating, Rice ([11]; 1000 g ai/ha, scale 0 to 100): 0; Plant response rating, Sedge, Umbrella [12, 23]: 0; Plant response rating, Sedge, Umbrella ([12]; 250 g ai/ha, scale 0 to 100): 0; Plant response rating, Sedge, Umbrella ([12]; 500 g ai/ha, scale 0 to 100): 0; Plant response rating, Sedge, Umbrella ([12]; 1000 g ai/ha, scale 0 to 100): 0; Plant response rating, Ducksalad [13, 23]: 20; Plant response rating, Ducksalad ([13]; 250 g ai/ha, scale 0 to 100): 30; Plant response rating, Ducksalad ([13]; 500 g ai/ha, scale 0 to 100): 70; Plant response rating, Ducksalad ([13]; 1000 g ai/ha, scale 0 to 100): 80; Plant response rating, Barnyardgrass [14, 23]: 0; Plant response rating, Barnyardgrass ([14]; 250 g ai/ha, scale 0 to 100): 0; Plant response rating, Barnyardgrass ([14]; 500 g ai/ha, scale 0 to 100): 0; Plant response rating, Barnyardgrass ([14]; 1000 g ai/ha, scale 0 to 100): 0
